Values quoted from earlier work in patent publication US20090170816A1, “COMBINATION COMPRISING SQUALENE, A PHOSPHOLIPID AND AN OMEGA 3 FATTY ACID FOR THE TREATMENT OF CANCER” (FARMALEIS S.L., priority 2005, published 2009).

Columns and labels:
Colon cancer = details: Table 1, source Carcinogenesis vol. 19 no. 2 pp. 287-290, 1998
[1] = system: chemically-induced lung tumours; details: compared to animals not receiving squalene

For `CC(C)=CCC/C(C)=C/CC/C(C)=C/CC/C=C(\C)CC/C=C(\C)CCC=C(C)C` [Squalene], the Survival percentage (Colon cancer) is listed as 50% ^(1), the incidence of tumours [1] is listed as “lower incidence of tumours” and the multiplicity of tumours [1] is listed as “lower multiplicity”. For the same compound, the volume of tumours [1] was “smaller volume”.
